Data reported in US11155517B2, “4-substituted phenylamine derivatives and their use to protect crops by fighting undesired phytopathogenic micoorganisms” (PI INDUSTRIES LTD., priority 2016, dated 2021).
Counter-ions that a name gives are not always drawn.

Columns and labels:
Assay type in all cases: cell-based
Rhizoctonia solani = Rhizoctonia solani (rice sheath blight/potato black scurf) in vitro test, radial growth on Potato Dextrose Agar; conditions: 168 h, 300 ppm, seven days, 25° C., read-out: % control compared to the untreated check (radial growth)
Alternaria solani = Alternaria solani (early blight of tomato/potato) in vitro test, radial growth on Potato Dextrose Agar; conditions: 168 h, 300 ppm, seven days, 25° C., read-out: % control compared to the untreated check (radial growth)
Botrytis cinerea = Botrytis cinerea (gray mold) in vitro test, radial growth on Potato Dextrose Agar; conditions: 168 h, 300 ppm, seven days, 22° C., read-out: % (control) compared to the untreated check (radial growth)
Pyricularia oryzae = assay: microbe, parasite or virus in culture; conditions: 168 h, read-out: % control compared to the untreated check (radial growth)

Compound | inhibition of growth at 300 ppm (Rhizoctonia solani) [%] | inhibition of growth at 300 ppm (Alternaria solani) [%] | inhibition of growth at 300 ppm (Botrytis cinerea) [%] | inhibition of growth at 300 ppm (Pyricularia oryzae) [%]
Cc1cc(N=CN(CC2CC2)C(C)C)c(C)cc1Cc1ccccc1F [Compound 88, N-(cyclopropylmethyl)-N′-(4-(2-fluorobenzyl)-2,5-dimethylphenyl)-N-isopropylformimidamide] | > 80 | > 75 | > 80 | > 75
COC=Nc1c(C)cc(Cc2ccc(Br)cc2)c(C)c1Br [Compound 217, methyl N-(2-bromo-4-(4-bromobenzyl)-3,6-dimethylphenyl)formimidate] |  |  | > 80 | 
CCN(C)C=Nc1cc(C(F)(F)F)c(Cc2cccc(OC(F)(F)F)c2)cc1F [Compound 233, N-ethyl-N′-(2-fluoro-4-(3-(trifluoromethoxy)benzyl)-5-(trifluoromethyl)phenyl)-N-methylformimidamide] |  | > 75 | > 80 | > 75
Cc1cc(N=CNC#N)c(C)cc1Cc1ccccc1Cl [Compound 65, N′-(4-(2-chlorobenzyl)-2,5-dimethylphenyl)-N-cyanoformimidamide] |  |  | > 80 | 
CCN(C)C=Nc1cc(C)c(C(C#N)c2ccc(Cl)cc2)cc1Cl (stereo not shown) [Compound 193, N′-(2-chloro-4-((4-chlorophenyl)(cyano)methyl)-5-methylphenyl)-N-ethyl-N-methylformimidamide] | > 80 |  | > 80 | > 75
CCN(C)C=Nc1cc(C(F)(F)F)c(Cc2cccc(C)c2)cc1F [Compound 231, N-ethyl-N′-(2-fluoro-4-(3-methylbenzyl)-5-(trifluoromethyl)phenyl)-N-methylformimidamide] | > 80 | > 75 |  | > 75
CCN(C)C=Nc1cc(C(F)(F)F)c(Cc2cccc(Cl)c2)cc1C1CC1 [Compound 265, N′-(4-(3-chlorobenzyl)-2-cyclopropyl-5-(trifluoromethyl)phenyl)-N-ethyl-N-methylformimidamide] | > 80 | > 75 | > 80 | > 75
CCN(C)C=Nc1cc(F)c(Cc2ccccc2F)cc1F [Compound 242, N′-(2,5-difluoro-4-(2-fluorobenzyl)phenyl)-N-ethyl-N-methylformimidamide] |  | > 75 | > 80 | > 75
CCN(C)C=Nc1cc(C(F)(F)F)c(Cc2ccccc2Cl)cc1F [Compound 226, N′-(4-(2-chlorobenzyl)-2-fluoro-5-(trifluoromethyl)phenyl)-N-ethyl-N-methylformimidamide] | > 80 | > 75 |  | > 75
CCN(C)C=Nc1cc(Cl)c(Cc2ccccc2Cl)cc1Cl [Compound 150, N′-(2,5-dichloro-4-(2-chlorobenzyl)phenyl)-N-ethyl-N-methylformimidamide] |  | > 75 |  | > 75
CCN(C)C=Nc1cc(C)c(Cc2cccc(Cl)c2)cc1S(C)(=O)=O [Compound 218, N′-(4-(3-chlorobenzyl)-5-methyl-2-(methylsulfonyl)phenyl)-N-ethyl-N-methylformimidamide] |  | > 75 |  | 
CCN(C)C=Nc1cc(C)c(C(C#N)c2ccc(C)cc2)cc1Cl (stereo not shown) [Compound 191, N′-(2-chloro-4-(cyano(p-tolyl)methyl)-5-methylphenyl)-N-ethyl-N-methylformimidamide] | > 80 |  | > 80 | 
CON(C)C=Nc1cc(C)c(Cc2ccccc2F)cc1C [Compound 61, N′-(4-(2-fluorobenzyl)-2,5-dimethylphenyl)-N-methoxy-N-methylformimidamide] | > 80 | > 75 |  | > 75
CCN(C)C=Nc1cc(C)c(C(C#N)c2ccc(F)c(Cl)c2)cc1Cl (stereo not shown) [Compound 190, N′-(2-chloro-4-((3-chloro-4-fluorophenyl)(cyano)methyl)-5-methylphenyl)-N-ethyl-N-methylformimidamide] |  |  | > 80 | > 75
CCN(C)C=Nc1cc(Cl)c(Cc2cccc(OC(F)(F)F)c2)cc1Cl [Compound 182, N′-(2,5-dichloro-4-(3-(trifluoromethoxy)benzyl)phenyl)-N-ethyl-N-methylformimidamide] | > 80 | > 75 | > 80 | > 75
CCN(C)C=Nc1cc(Cl)c(C(C(=O)OC)c2cccc(Cl)c2)cc1C (stereo not shown) [Compound 237, methyl 2-(2-chloro-4-(((ethyl(methyl)amino)methylene)amino)-5-methylphenyl)-2-(3-chlorophenyl)acetate] |  | > 75 |  | > 75
C=C(c1ccc(Br)cc1)c1cc(C)c(N=CN(C)CC)cc1Cl [Compound 238, N′-(4-(1-(4-bromophenyl)vinyl)-5-chloro-2-methylphenyl)-N-ethyl-N-methylformimidamide] |  | > 75 | > 80 | > 75

Compound | inhibition of growth at 300 ppm (Rhizoctonia solani) [%] | inhibition of growth at 300 ppm (Alternaria solani) [%] | inhibition of growth at 300 ppm (Botrytis cinerea) [%] | inhibition of growth at 300 ppm (Pyricularia oryzae) [%]
CCN(C)C=Nc1c(C)cc(Cc2ccc(C3CC3)cc2)c(C)c1C1CC1 [Compound 267, N′-(2-cyclopropyl-4-(4-cyclopropylbenzyl)-3,6-dimethylphenyl)-N-ethyl-N-methylformimidamide] | > 80 | > 75 | > 80 | > 75
CCN(C)C=Nc1cc(C)c(Cc2ccccn2)cc1C [Compound 202, N′-(2,5-dimethyl-4-(pyridin-2-ylmethyl)phenyl)-N-ethyl-N-methylformimidamide] |  | > 75 |  | > 75
CCN(C)C=Nc1cc(C)c(C(C#N)c2ccc(C(F)(F)F)cc2)cc1Cl (stereo not shown) [Compound 187, N′-(2-chloro-4-(cyano(4-(trifluoromethyl)phenyl)methyl)-5-methylphenyl)-N-ethyl-N-methylformimidamide] |  |  | > 80 | 
CCN(C)C=Nc1cc(C)c(Cc2ccc(C)cc2)cc1S(C)(=O)=O [Compound 235, N-ethyl-N-methyl-N′-(5-methyl-4-(4-methylbenzyl)-2-(methylsulfonyl)phenyl)formimidamide] |  |  | > 80 | 
CCN(C)C=Nc1cc(C)c(Cc2cccc(F)c2Cl)cc1Cl [Compound 125, N′-(2-chloro-4-(2-chloro-3-fluorobenzyl)-5-methylphenyl)-N-ethyl-N-methylformimidamide] |  | > 75 |  | > 75
CCN(C)C=Nc1cc(C)c(Cc2cc(C(F)(F)F)cc(Cl)c2F)cc1Cl [Compound 126, N′-(2-chloro-4-(3-chloro-2-fluoro-5-(trifluoromethyl)benzyl)-5-methylphenyl)-N-ethyl-N-methylformimidamide] |  | > 75 |  | > 75
CCN(C)C=Nc1cc(C(F)(F)F)c(Cc2cccc(F)c2)cc1C1CC1 [Compound 266, N′-(2-cyclopropyl-4-(3-fluorobenzyl)-5-(trifluoromethyl)phenyl)-N-ethyl-N-methylformimidamide] |  | > 75 | > 80 | > 75
CCN(C)C=Nc1cc(C(F)(F)F)c(Cc2ccccc2F)cc1F [Compound 227, N-ethyl-N′-(2-fluoro-4-(2-fluorobenzyl)-5-(trifluoromethyl)phenyl)-N-methylformimidamide] | > 80 | > 75 |  | > 75
CCN(C)C=Nc1cc(C)c(C(C#N)c2cccc(C(F)(F)F)c2)cc1Cl (stereo not shown) [Compound 272, N′-(2-chloro-4-(cyano(3-(trifluoromethyl)phenyl)methyl)-5-methylphenyl)-N-ethyl-N-methylformimidamide hydrochloride] |  | > 75 |  | 
CCN(C)C=Nc1c(C)cc(Cc2ccccc2C)c(C)c1Br [Compound 219, N′-(2-bromo-3,6-dimethyl-4-(2-methylbenzyl)phenyl)-N-ethyl-N-methylformimidamide] |  | > 75 | > 80 | > 75
CCN(C)C=Nc1c(C)cc(C(F)(F)c2ccccc2)c(C)c1I [Compound 73, N′-(4-(difluoro(phenyl)methyl)-2-iodo-3,6-dimethylphenyl)-N-ethyl-N-methylformimidamide] |  |  |  | > 75
CCN(C)C=Nc1cc(C)c(C(C#N)c2cccc(F)c2)cc1Cl (stereo not shown) [Compound 194, N′-(2-chloro-4-(cyano(3-fluorophenyl)methyl)-5-methylphenyl)-N-ethyl-N-methylformimidamide] |  |  |  | > 75
Cc1cc(N=CN2CCOCC2)c(Cl)cc1Cc1cccc(F)c1 [Compound 38, N-(2-chloro-4-(3-fluorobenzyl)-5-methylphenyl)-1-morpholinomethanimine] |  |  |  | > 75
CCN(C)C=Nc1cc(Cl)c(Cc2ccc(C)cc2)cc1Cl [Compound 147, N′-(2,5-dichloro-4-(4-methylbenzyl)phenyl)-N-ethyl-N-methylformimidamide] | > 80 | > 75 |  | 
CCN(C)C=Nc1cc(C)c(C(C#N)c2cccc(C(F)(F)F)c2)cc1Cl (stereo not shown) [Compound 188, N′-(2-chloro-4-(cyano(3-(trifluoromethyl)phenyl)methyl)-5-methylphenyl)-N-ethyl-N-methylformimidamide] |  |  | > 80 | > 75
CCN(C)C=Nc1cc(C)c(Cc2ccccc2C)cc1S(C)(=O)=O [Compound 234, N-ethyl-N-methyl-N′-(5-methyl-4-(2-methylbenzyl)-2-(methylsulfonyl)phenyl)formimidamide] |  | > 75 | > 80 | > 75
